From patent US20180022780A1, “STABILIZATION ADRENOMEDULLIN DERIVATIVES AND USE THEREOF” (priority 2014, published 2018) come the findings set out here.

Bridge positions count the residues as written; N and C are the ends. Square brackets hold non-standard residues; d marks the D form. Peptide text beside a SMILES is read from it. * marks the point of attachment. X1 = CN(C)c1ccc2c(c1)Oc1cc(N(C)C)ccc1C21OC(=O)c2ccc(C(=O)*)cc21; Palmitoyl = CCCCCCCCCCCCCCCC(=O)*; NMeK = CN[C@@H](CCCCN)C(=O)O; Dap = NC[C@H](N)C(=O)O

The target in data set [1] is T1, CLR fused to EYFP and RAMP2 fused to ECFP (Homo sapiens, UniProt O60895+Q16602).
T1 construct: EYFP; ECFP; expressed in transfected cells; host or cells: HEK-293 cells, transient co-transfection
As to the kind of experiment: cAMP assay (CRE luciferase reporter, HEK-293 cells transiently co-transfected with CLR and RAMP2). To be noted: Table 2, cAMP assay; HEK-293, CLR/RAMP2, CRE luciferase, 3 h stimulation, normalized to [G^14]ADM(14-52). It is filed as cell-based. The procedure, abridged: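 HEK-293 cells transiently co-transfected with CLR-EYFP, RAMP2-ECFP and a CRE-luc2P luciferase reporter were stimulated with ligands (eight concentrations, triplicate) for 3 h at 37 °C. Luminescence was corrected to 5 µM forskolin, normalized to [G^14]ADM(14-52) standard, and fitted by non-linear regression to dose-response curves.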

In data set [2] the target is T2, human adrenomedullin-receptor (Homo sapiens, UniProt O60895+Q16602).
T2 construct: expressed in transfected cells; host or cells: CHO (Chinese hamster ovary) recombinant reporter cell line with aequorin
Description: Tests on a recombinant adrenomedullin-receptor reporter cell (CHO, aequorin luminescence). It is filed as cell-based. The settings on record: Table 1, CHO cell line carrying the human adrenomedullin-receptor. The procedure:
Activation of the receptor by ligands was measured by aequorin luminescence. Construction of the cell line and measurement procedure has been described in detail [Wunder F., Rebmann A., Geerts A, and Kalthof B., Mol Pharmacol, 73, 1235-1243 (2008)]. In brief: Cells were seeded on opaque 384-well microtiter plates at a density of 4000 cells/well and were grown for 24 h. After removal of culture medium, cells were loaded for 3 h with 0.6 μg/ml coelenterazine in Ca^2+-free Tyrode solution (130 mM sodium chloride, 5 mM potassium chloride, 20 mM HEPES (4-(2-hydroxyethyl)-1-piperazineethanesulfonic acid), 1 mM magnesium chloride, and 4.8 mM sodium hydrogen carbonate, pH 7.4) supplemented with 0.2 mM 3-Isobutyl-1-methylxanthine (IBMX) in a cell culture incubator. Examples were added for 6 min in calcium^2+-free Tyrode solution containing 0.1% bovine serum albumin. Immediately before adding calcium^2+ to a final concentration of 3 mM measurement of the aequorin luminescence was started by use of a suitable luminometer. Luminescence was measured for 60 s. In a typical experiment compounds were tested in a concentration range of 1×10^−13 to 3×10^−6 M.

Data set [3] is described as follows: Stability in human blood plasma (TAM-labeled analogues). It is filed as in vitro ADME. To be noted: 10E-5 M, 37° C., two phase decay, N-terminally TAM-labeled analogues, read-out: HalfLife (Slow) (converted). An excerpt: FIG. 3: Stability of peptides in plasma calculated with GraphPad Prism 5 (GraphPad Software) using two phase decay analysis for the determination of half-life (slow) (Test 1e). N-terminally 6-carboxytetramethylrhodamine-(TAM)-labeled analogues of Control: TAM[G^14]ADM(14-52); Example 18: TAM[K^14(PAM), (Dpr^16, E^21)lac]ADM(14-52); and Example 27: TAM[K^14(PAM), (Dpr^16, E^21)lac, Nα-Me-K^46]ADM(14-52).
The stability of the peptides was investigated using N-terminally 6-carboxytetramethylrhodamine-(TAM)-labeled analogues.
Fluorescently labeled ADM analogues were prepared by using solid phase peptide synthesis (SPPS) as described before (general method for peptide synthesis). Manual coupling of 6-carboxytetramethylrhodamine (TAM) to the N-terminus of the peptides was carried out with a 3-fold molar excess of the fluorescence dye, 2-(1H-benzotriazol-1-yl)-1,1,3,3-tetramethyluronium hexafluorophosphate (HBTU) and N,N-Diisopropylethylamine (DIPEA) in DMF under constant shaking for 24 h the resin as described recently (Bohme D., Beck-Sickinger A. G. ChemMedChem 2015, 10: 804-14). The identity of the peptides was confirmed by mass spectrometry with an MALDI-MS (UltraflexIII, Bruker) and an ESI-MS (HCT, Bruker). The observed masses were in correspondence to the calculated masses.
The peptides were dissolved in 1.5 ml of human blood plasma to a concentration of 10E-5 M and incubated at 37° C. under constant shaking. […] The samples were analyzed by RP-HPLC using a Varian VariTide RPC column (particle size 6 μm; pore size 200 Å; 250×4.6 mm) with linear gradients of 0.1% TFA in water and 0.08% TFA in ACN; fluorescence emission was detected at λ=573 nm. The percentage of intact peptide was determined by peak integration. […] The stability of the peptides was calculated with GraphPad Prism 5 (GraphPad Software) using a two phase exponential decay function for the determination of slow-decay phase half-lives (ln(2)/Kslow; Kslow: rate constant of slow part of exponential decay) (Table 3 and FIG. 3).

T1 sequence (Q16602 23-461): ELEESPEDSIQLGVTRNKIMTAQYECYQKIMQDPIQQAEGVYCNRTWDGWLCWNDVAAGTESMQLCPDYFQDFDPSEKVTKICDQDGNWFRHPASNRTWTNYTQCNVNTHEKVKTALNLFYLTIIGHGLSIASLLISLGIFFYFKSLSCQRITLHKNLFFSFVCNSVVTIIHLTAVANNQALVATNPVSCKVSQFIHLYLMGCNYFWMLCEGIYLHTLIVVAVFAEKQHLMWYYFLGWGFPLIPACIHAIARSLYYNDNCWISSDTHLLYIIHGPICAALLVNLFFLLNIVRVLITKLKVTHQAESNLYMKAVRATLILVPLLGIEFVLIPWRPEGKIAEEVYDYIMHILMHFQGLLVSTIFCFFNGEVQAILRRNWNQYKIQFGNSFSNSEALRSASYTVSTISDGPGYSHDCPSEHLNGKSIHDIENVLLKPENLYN
T1 sequence (O60895 43-175): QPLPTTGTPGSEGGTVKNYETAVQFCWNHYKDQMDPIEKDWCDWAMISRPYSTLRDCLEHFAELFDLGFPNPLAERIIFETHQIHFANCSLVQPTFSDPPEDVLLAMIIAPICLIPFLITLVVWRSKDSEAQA
T2 sequence (Q16602 23-461): as the sequence (Q16602 23-461) above
T2 sequence (O60895 43-175): as the sequence (O60895 43-175) above

`CC[C@H](C)[C@H](NC(=O)[C@H](CCC(N)=O)NC(=O)[C@H](Cc1c[nH]cn1)NC(=O)[C@H](C)NC(=O)[C@H](CC(C)C)NC(=O)[C@H](CCCCN)NC(=O)[C@H](CCC(N)=O)NC(=O)[C@@H](NC(=O)[C@@H](NC(=O)[C@@H]1CCCCNC(=O)C[C@H](NC(=O)CNC(=O)CN)C(=O)N[C@@H](CCCNC(=N)N)C(=O)N[C@@H](Cc2ccccc2)C(=O)NCC(=O)N[C@@H]([C@@H](C)O)C(=O)N1)[C@@H](C)O)C(C)C)C(=O)N[C@@H](Cc1ccc(O)cc1)C(=O)N[C@@H](CCC(N)=O)C(=O)N[C@@H](Cc1ccccc1)C(=O)N[C@H](C(=O)N[C@@H](CC(=O)O)C(=O)N[C@@H](CCCCN)C(=O)N[C@@H](CC(=O)O)C(=O)N[C@@H](CCCCN)C(=O)N[C@@H](CC(=O)O)C(=O)N[C@@H](CC(N)=O)C(=O)N[C@H](C(=O)N[C@@H](C)C(=O)N1CCC[C@H]1C(=O)N[C@@H](CCCNC(=N)N)C(=O)N[C@@H](CO)C(=O)N[C@@H](CCCCN)C(=O)N[C@H](C(=O)N[C@@H](CO)C(=O)N1CCC[C@H]1C(=O)N[C@@H](CCC(N)=O)C(=O)NCC(=O)N[C@@H](Cc1ccc(O)cc1)C(N)=O)[C@@H](C)CC)C(C)C)[C@@H](C)O` [Example 22, ((3S,9S,12S,15S,23S)-15-(2-(2-aminoacetamido)acetamido)-9-benzyl-12-(3-guanidinopropyl)-3-((R)-1-hydroxyethyl)-2,5,8,11,14,17-hexaoxo-1,4,7,10,13,18-hexaazacyclotricosane-23-carbonyl)-L-threonyl-ADM(22-52)] (H-GGDRFGTKTVQKLAHQIYQFTDKDKDNVAPRSKISPQGY-NH2; lactam 3-8): the EC50 in data set [1] was determined as 2.3 nM; in data set [2] it was 15 nM.

With `CC[C@H](C)[C@H](NC(=O)[C@H](CCC(N)=O)NC(=O)[C@H](Cc1c[nH]cn1)NC(=O)[C@H](C)NC(=O)[C@H](CC(C)C)NC(=O)[C@H](CCCCN)NC(=O)[C@H](CCC(N)=O)NC(=O)[C@@H](NC(=O)[C@@H](NC(=O)[C@@H]1CNC(=O)C[C@H](NC(=O)CNC(=O)CN)C(=O)N[C@@H](CCCNC(=N)N)C(=O)N[C@@H](Cc2ccccc2)C(=O)NCC(=O)N[C@@H]([C@@H](C)O)C(=O)N1)[C@@H](C)O)C(C)C)C(=O)N[C@@H](Cc1ccc(O)cc1)C(=O)N[C@@H](CCC(N)=O)C(=O)N[C@@H](Cc1ccccc1)C(=O)N[C@H](C(=O)N[C@@H](CC(=O)O)C(=O)N[C@@H](CCCCN)C(=O)N[C@@H](CC(=O)O)C(=O)N[C@@H](CCCCN)C(=O)N[C@@H](CC(=O)O)C(=O)N[C@@H](CC(N)=O)C(=O)N[C@H](C(=O)N[C@@H](C)C(=O)N1CCC[C@H]1C(=O)N[C@@H](CCCNC(=N)N)C(=O)N[C@@H](CO)C(=O)N[C@@H](CCCCN)C(=O)N[C@H](C(=O)N[C@@H](CO)C(=O)N1CCC[C@H]1C(=O)N[C@@H](CCC(N)=O)C(=O)NCC(=O)N[C@@H](Cc1ccc(O)cc1)C(N)=O)[C@@H](C)CC)C(C)C)[C@@H](C)O` [Example 26, ((3S,6S,12S,15S,18S)-18-(2-(2-aminoacetamido)acetamido)-12-benzyl-15-(3-guanidinopropyl)-6-((R)-1-hydroxyethyl)-5,8,11,14,17,20-hexaoxo-1,4,7,10,13,16-hexaazacycloicosane-3-carbonyl)-L-threonyl-ADM(22-52)] (H-GGDRFGT[Dap]TVQKLAHQIYQFTDKDKDNVAPRSKISPQGY-NH2; lactam 3-8), the EC50 in data set [1] was > 1000 nM; in data set [2] it was 32 nM. As to `CCCCCCCCCCCCCCCC(=O)NCCCC[C@H](NC(=O)c1ccc2c(c1)C1(OC2=O)c2ccc(N(C)C)cc2Oc2cc(N(C)C)ccc21)C(=O)NCC(=O)N[C@H]1CNC(=O)CC[C@@H](C(=O)N[C@H](C(=O)N[C@H](C(=O)N[C@@H](CCC(N)=O)C(=O)N[C@@H](CCCCN)C(=O)N[C@@H](CC(C)C)C(=O)N[C@@H](C)C(=O)N[C@@H](Cc2c[nH]cn2)C(=O)N[C@@H](CCC(N)=O)C(=O)N[C@H](C(=O)N[C@@H](Cc2ccc(O)cc2)C(=O)N[C@@H](CCC(N)=O)C(=O)N[C@@H](Cc2ccccc2)C(=O)N[C@H](C(=O)N[C@@H](CC(=O)O)C(=O)N[C@@H](CCCCN)C(=O)N[C@@H](CC(=O)O)C(=O)N[C@@H](CCCCN)C(=O)N[C@@H](CC(=O)O)C(=O)N[C@@H](CC(N)=O)C(=O)N[C@H](C(=O)N[C@@H](C)C(=O)N2CCC[C@H]2C(=O)N[C@@H](CCCNC(=N)N)C(=O)N[C@@H](CO)C(=O)N[C@@H](CCCCN)C(=O)N[C@H](C(=O)N[C@@H](CO)C(=O)N2CCC[C@H]2C(=O)N[C@@H](CCC(N)=O)C(=O)NCC(=O)N[C@@H](Cc2ccc(O)cc2)C(N)=O)[C@@H](C)CC)C(C)C)[C@@H](C)O)[C@@H](C)CC)C(C)C)[C@@H](C)O)NC(=O)[C@H]([C@@H](C)O)NC(=O)CNC(=O)[C@H](Cc2ccccc2)NC(=O)[C@H](CCCNC(=N)N)NC1=O` [TAM-18, TAM[K^14(PAM), (Dpr^16, E^21)lac]ADM(14-52)] (X1-K(Palmitoyl)G[Dap]RFGTETVQKLAHQIYQFTDKDKDNVAPRSKISPQGY-NH2; lactam 3-8), in data set [3], the half-life at 0.0001 M is > 96 h. On the same count and under the same terms, to `CCCCCCCCCCCCCCCC(=O)NCCCC[C@H](NC(=O)c1ccc2c(c1)C1(OC2=O)c2ccc(N(C)C)cc2Oc2cc(N(C)C)ccc21)C(=O)NCC(=O)N[C@H]1CNC(=O)CC[C@@H](C(=O)N[C@H](C(=O)N[C@H](C(=O)N[C@@H](CCC(N)=O)C(=O)N[C@@H](CCCCN)C(=O)N[C@@H](CC(C)C)C(=O)N[C@@H](C)C(=O)N[C@@H](Cc2c[nH]cn2)C(=O)N[C@@H](CCC(N)=O)C(=O)N[C@H](C(=O)N[C@@H](Cc2ccc(O)cc2)C(=O)N[C@@H](CCC(N)=O)C(=O)N[C@@H](Cc2ccccc2)C(=O)N[C@H](C(=O)N[C@@H](CC(=O)O)C(=O)N[C@@H](CCCCN)C(=O)N[C@@H](CC(=O)O)C(=O)N[C@@H](CCCCN)C(=O)N[C@@H](CC(=O)O)C(=O)N[C@@H](CC(N)=O)C(=O)N[C@H](C(=O)N[C@@H](C)C(=O)N2CCC[C@H]2C(=O)N[C@@H](CCCNC(=N)N)C(=O)N[C@@H](CO)C(=O)N(C)[C@@H](CCCCN)C(=O)N[C@H](C(=O)N[C@@H](CO)C(=O)N2CCC[C@H]2C(=O)N[C@@H](CCC(N)=O)C(=O)NCC(=O)N[C@@H](Cc2ccc(O)cc2)C(N)=O)[C@@H](C)CC)C(C)C)[C@@H](C)O)[C@@H](C)CC)C(C)C)[C@@H](C)O)NC(=O)[C@H]([C@@H](C)O)NC(=O)CNC(=O)[C@H](Cc2ccccc2)NC(=O)[C@H](CCCNC(=N)N)NC1=O` [TAM-27, TAM[K^14(PAM), (Dpr^16, E^21)lac, Nα-Me-K^46]ADM(14-52)] (X1-K(Palmitoyl)G[Dap]RFGTETVQKLAHQIYQFTDKDKDNVAPRS[NMeK]ISPQGY-NH2; lactam 3-8) belongs > 96 h.
